Test results taken from patent US11691980B2, “Liphagal analog and multi-targeted kinase inhibitor containing liphagal or analog thereof” (TOHOKU UNIVERSITY, priority 2017, dated 2023).

Assays:
Assay type in all cases: biochemical
[1] = test system: MAPXK2 Cascade; assay: mobility shift assay; details: 10 μM
[2] = target: T1, CGK2 (Homo sapiens, UniProt Q13237); assay: mobility shift assay
T1 construct: purchased Carna Biosciences

[3] = target: T2, MSK1 (Homo sapiens, UniProt O75582); assay: mobility shift assay
T2 construct: purchased Carna Biosciences
T2 sequence (O75582 whole entry): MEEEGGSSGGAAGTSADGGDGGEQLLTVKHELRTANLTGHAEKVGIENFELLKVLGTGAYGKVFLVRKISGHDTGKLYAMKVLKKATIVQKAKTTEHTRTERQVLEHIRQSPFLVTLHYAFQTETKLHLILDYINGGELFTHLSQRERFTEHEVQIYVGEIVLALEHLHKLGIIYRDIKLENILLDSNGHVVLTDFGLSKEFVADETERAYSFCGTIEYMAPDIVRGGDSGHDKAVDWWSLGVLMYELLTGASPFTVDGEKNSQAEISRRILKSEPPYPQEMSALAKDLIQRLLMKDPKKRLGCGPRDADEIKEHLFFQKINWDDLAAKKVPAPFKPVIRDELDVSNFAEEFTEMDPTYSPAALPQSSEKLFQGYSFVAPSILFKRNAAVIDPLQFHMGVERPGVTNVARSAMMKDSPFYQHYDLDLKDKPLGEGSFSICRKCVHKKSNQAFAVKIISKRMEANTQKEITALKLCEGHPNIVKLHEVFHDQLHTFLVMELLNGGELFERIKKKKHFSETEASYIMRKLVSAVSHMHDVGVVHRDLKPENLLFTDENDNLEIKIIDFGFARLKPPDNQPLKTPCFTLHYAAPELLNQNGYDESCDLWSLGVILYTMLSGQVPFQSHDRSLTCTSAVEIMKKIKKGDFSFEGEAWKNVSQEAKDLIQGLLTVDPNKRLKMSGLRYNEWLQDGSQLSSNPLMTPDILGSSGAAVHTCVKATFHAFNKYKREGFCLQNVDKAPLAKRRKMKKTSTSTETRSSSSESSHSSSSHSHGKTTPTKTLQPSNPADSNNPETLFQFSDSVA

[4] = target: T3, HCK (Homo sapiens, UniProt P08631); assay: mobility shift assay
T3 construct: purchased Carna Biosciences

[5] = target: T4, AurA/TPX2 (Homo sapiens, UniProt O14965); assay: mobility shift assay
T4 construct: purchased Carna Biosciences

[6] = target: T5, CDK2/CycE1 (Homo sapiens, UniProt P24941); assay: mobility shift assay
T5 construct: purchased Carna Biosciences

[7] = target: T6, FGFR1 (Homo sapiens, UniProt P11362); assay: mobility shift assay
T6 construct: purchased Carna Biosciences

[8] = target: T7, p38α (Homo sapiens, UniProt Q16539); assay: mobility shift assay
T7 construct: purchased Carna Biosciences
T7 sequence (Q16539 whole entry): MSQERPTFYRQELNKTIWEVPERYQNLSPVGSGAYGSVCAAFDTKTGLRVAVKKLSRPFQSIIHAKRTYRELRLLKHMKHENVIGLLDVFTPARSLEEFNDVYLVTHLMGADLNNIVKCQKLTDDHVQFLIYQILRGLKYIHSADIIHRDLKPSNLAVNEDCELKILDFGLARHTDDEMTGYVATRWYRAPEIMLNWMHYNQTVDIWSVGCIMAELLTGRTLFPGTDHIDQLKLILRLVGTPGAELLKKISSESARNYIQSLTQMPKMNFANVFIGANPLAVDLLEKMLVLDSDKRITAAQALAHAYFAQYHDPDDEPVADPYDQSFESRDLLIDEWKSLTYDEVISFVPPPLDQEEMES

[9] = target: T8, PDK1 (Homo sapiens, UniProt O15530); assay: mobility shift assay
T8 construct: purchased Carna Biosciences
T8 sequence (O15530 whole entry): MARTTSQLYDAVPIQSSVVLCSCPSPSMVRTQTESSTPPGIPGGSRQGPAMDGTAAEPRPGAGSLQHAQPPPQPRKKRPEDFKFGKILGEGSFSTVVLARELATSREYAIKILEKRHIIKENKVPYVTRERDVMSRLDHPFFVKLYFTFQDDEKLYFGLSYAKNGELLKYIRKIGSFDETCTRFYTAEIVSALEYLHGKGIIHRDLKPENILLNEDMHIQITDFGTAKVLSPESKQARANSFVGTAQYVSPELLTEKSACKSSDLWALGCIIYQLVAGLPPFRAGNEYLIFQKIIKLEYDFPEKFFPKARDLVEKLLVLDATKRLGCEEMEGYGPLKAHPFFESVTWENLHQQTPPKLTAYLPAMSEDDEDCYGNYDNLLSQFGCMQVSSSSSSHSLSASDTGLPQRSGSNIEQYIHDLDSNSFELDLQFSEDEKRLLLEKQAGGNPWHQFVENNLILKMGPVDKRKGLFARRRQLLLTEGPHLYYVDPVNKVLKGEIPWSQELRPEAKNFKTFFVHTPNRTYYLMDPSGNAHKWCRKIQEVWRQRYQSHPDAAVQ

[10] = target: T9, GSK3α (Homo sapiens, UniProt P49840); assay: mobility shift assay
T9 construct: purchased Carna Biosciences
T9 sequence (P49840 whole entry): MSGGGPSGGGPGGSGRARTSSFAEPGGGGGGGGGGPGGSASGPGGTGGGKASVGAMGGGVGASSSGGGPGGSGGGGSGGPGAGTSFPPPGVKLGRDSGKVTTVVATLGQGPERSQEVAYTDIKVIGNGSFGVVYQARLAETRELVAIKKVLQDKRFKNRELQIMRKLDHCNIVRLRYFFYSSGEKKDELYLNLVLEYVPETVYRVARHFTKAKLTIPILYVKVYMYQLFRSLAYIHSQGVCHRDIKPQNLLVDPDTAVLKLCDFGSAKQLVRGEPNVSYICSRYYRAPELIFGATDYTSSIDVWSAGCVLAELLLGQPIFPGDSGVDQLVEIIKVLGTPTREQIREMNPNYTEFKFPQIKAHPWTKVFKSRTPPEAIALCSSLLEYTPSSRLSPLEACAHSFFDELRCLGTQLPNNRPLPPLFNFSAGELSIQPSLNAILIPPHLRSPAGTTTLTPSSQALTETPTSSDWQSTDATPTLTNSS

[11] = target: T10, FGR3(K650E) (Homo sapiens, UniProt P22607, K650E); assay: mobility shift assay
T10 construct: purchased Carna Biosciences

[12] = target: T11, MAP2K6_Cascade (Homo sapiens, UniProt P52564); assay: mobility shift assay
T11 construct: purchased Carna Biosciences

[13] = target: T12, CaMK2γ (Homo sapiens, UniProt Q13555); assay: mobility shift assay
T12 construct: purchased Carna Biosciences

[14] = target: T13, SRPK1 (Homo sapiens, UniProt Q96SB4); assay: IMAP Assay
T13 construct: purchased Carna Biosciences

[15] = target: T14, ABL (Homo sapiens, UniProt P00519); assay: mobility shift assay
T14 construct: purchased Carna Biosciences

[16] = target: T15, TNK (Homo sapiens, UniProt Q9UKE5); assay: mobility shift assay
T15 construct: purchased Carna Biosciences

[17] = target: T16, DYRK2 (Homo sapiens, UniProt Q92630); assay: mobility shift assay
T16 construct: purchased Carna Biosciences

[18] = target: T17, PDGF Ru(DB42V) (Homo sapiens, UniProt P16234, D842V); assay: mobility shift assay
T17 construct: purchased Carna Biosciences

[19] = target: T18, PDHK4 (Homo sapiens, UniProt Q16654); assay: mobility shift assay
T18 construct: purchased Carna Biosciences

[20] = target: T19, TYK2 (Homo sapiens, UniProt P29597); assay: mobility shift assay
T19 construct: purchased Carna Biosciences

[21] = target: T20, HPK1 (Homo sapiens, UniProt Q86Z02); assay: mobility shift assay
T20 construct: purchased Carna Biosciences

[22] = target: T21, MAP3K1_Cascade (Homo sapiens, UniProt Q13233); assay: mobility shift assay
T21 construct: purchased Carna Biosciences

[23] = target: T22, PLK1 (Homo sapiens, UniProt P53350); assay: mobility shift assay
T22 construct: purchased Carna Biosciences

[24] = target: T23, MLK2_Cascade (Homo sapiens, UniProt Q02779); assay: mobility shift assay
T23 construct: purchased Carna Biosciences

[25] = target: T24, CK1y1 (Homo sapiens, UniProt Q9HCP0); assay: mobility shift assay
T24 construct: purchased Carna Biosciences
T24 sequence (Q9HCP0 whole entry): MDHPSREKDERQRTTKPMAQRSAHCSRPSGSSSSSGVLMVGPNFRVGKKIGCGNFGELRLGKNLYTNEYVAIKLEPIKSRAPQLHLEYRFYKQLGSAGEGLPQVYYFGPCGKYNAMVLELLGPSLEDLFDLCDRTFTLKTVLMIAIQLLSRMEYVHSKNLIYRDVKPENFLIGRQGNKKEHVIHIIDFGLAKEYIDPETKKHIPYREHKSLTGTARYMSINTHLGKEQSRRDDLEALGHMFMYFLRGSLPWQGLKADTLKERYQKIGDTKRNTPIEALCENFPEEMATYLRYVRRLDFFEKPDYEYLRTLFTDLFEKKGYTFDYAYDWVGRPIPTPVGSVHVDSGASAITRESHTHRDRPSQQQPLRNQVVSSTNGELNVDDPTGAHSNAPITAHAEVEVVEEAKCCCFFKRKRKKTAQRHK

[26] = target: T25, DDR2 (Homo sapiens, UniProt Q16832); assay: mobility shift assay
T25 construct: purchased Carna Biosciences

[27] = target: T26, PIM 3 (Homo sapiens, UniProt Q86V86); assay: mobility shift assay
T26 construct: purchased Carna Biosciences

[28] = target: T27, CDC2/CycB1 (Homo sapiens, UniProt P06493); assay: mobility shift assay
T27 construct: purchased Carna Biosciences
T27 sequence (P06493 whole entry): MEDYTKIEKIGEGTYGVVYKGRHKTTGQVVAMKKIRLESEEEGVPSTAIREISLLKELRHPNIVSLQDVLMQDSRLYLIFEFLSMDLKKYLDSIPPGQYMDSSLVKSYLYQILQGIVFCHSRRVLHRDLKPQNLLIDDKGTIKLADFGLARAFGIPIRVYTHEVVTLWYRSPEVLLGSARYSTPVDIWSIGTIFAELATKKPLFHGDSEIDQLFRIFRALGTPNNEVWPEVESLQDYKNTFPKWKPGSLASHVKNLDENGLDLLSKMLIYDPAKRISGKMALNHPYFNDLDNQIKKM
T27 sequence (P14635 whole entry partner): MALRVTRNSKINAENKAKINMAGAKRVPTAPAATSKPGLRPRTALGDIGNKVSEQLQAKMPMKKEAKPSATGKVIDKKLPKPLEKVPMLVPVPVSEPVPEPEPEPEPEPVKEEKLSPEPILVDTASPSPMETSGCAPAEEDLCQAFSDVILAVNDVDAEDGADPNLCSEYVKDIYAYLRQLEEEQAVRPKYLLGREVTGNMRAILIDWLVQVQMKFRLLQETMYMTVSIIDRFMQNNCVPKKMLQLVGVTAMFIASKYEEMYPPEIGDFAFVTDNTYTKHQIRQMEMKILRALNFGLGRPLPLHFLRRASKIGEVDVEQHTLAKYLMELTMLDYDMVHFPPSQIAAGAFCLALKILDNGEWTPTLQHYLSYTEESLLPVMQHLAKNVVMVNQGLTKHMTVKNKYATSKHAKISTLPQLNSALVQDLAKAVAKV

[29] = target: T28, EPHB1 (Homo sapiens, UniProt P54762); assay: mobility shift assay
T28 construct: purchased Carna Biosciences

[30] = target: T29, MST 4 (Homo sapiens, UniProt Q9P289); assay: mobility shift assay
T29 construct: purchased Carna Biosciences

[31] = target: T30, SIK (Homo sapiens, UniProt P57059); assay: mobility shift assay
T30 construct: purchased Carna Biosciences
T30 sequence (P57059 whole entry): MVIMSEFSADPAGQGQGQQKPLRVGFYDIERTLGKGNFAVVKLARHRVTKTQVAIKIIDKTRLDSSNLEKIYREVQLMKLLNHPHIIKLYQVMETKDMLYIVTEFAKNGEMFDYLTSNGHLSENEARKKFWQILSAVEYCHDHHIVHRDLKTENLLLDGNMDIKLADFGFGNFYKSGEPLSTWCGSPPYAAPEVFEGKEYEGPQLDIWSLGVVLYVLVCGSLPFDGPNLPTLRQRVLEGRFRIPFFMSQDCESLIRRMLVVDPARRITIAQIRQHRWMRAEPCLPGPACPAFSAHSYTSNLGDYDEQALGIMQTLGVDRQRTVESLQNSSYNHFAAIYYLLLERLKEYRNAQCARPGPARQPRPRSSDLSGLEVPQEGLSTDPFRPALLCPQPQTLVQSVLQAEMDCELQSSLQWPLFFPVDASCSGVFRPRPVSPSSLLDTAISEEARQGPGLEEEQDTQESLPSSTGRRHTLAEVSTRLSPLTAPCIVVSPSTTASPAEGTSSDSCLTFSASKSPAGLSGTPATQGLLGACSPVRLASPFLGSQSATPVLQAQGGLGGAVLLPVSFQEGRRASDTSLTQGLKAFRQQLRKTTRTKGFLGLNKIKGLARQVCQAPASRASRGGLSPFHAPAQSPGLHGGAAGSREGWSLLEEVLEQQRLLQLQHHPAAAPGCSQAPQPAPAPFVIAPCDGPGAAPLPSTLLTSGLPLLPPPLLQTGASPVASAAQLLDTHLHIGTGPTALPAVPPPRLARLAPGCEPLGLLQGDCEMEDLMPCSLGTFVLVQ

[32] = target: T31, MET(D1228H) (Homo sapiens, UniProt P08581, D1228H); assay: mobility shift assay
T31 construct: purchased Carna Biosciences

[33] = target: T32, SPHK2 (Homo sapiens, UniProt Q9NRA0); assay: mobility shift assay
T32 construct: purchased Carna Biosciences
T32 sequence (Q9NRA0 whole entry): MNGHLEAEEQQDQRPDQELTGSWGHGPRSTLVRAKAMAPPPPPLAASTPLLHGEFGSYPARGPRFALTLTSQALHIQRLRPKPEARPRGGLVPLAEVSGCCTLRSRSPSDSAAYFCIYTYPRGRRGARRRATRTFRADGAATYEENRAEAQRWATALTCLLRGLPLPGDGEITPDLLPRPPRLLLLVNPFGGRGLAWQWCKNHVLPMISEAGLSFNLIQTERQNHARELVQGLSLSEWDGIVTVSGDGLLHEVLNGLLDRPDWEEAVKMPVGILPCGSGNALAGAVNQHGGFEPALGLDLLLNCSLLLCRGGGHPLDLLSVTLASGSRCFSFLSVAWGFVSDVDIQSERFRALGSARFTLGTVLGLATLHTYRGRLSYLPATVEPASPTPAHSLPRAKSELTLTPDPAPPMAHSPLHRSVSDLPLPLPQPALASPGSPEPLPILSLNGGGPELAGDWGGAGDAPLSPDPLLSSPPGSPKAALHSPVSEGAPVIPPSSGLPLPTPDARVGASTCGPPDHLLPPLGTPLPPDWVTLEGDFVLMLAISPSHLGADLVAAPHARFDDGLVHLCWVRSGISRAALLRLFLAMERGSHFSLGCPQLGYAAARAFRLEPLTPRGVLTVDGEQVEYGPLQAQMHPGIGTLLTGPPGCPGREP

[34] = target: PIK3α (PIK3CA/PIK3R1) (Homo sapiens, UniProt P42336); assay: IC50 by mobility shift assay; details: Table 2, mobility shift assay; read-out: IC50 (μM), Kinase PIK3CA/PIK3RI
Procedure: The compounds obtained in Production Examples described above were each measured for its IC50 value for PIK3α (PIK3CA/PIK3R1) by mobility shift assay. The mobility shift assay is a method involving separating and quantifying a substrate and a phosphorylated substrate on the basis of mobility in a capillary. Each compound was mixed at various concentrations with an assay buffer (20 mM HEPES, 2 mM DTT, 25 μM sodium cholate, 75 mM NaCl, 20 μM cantharidine) together with 21 nM PI3K, 1,000 nM phosphatidyl inositol, 50 μM ATP, and 5 mM MgCl, and the mixture was subjected to a reaction at room temperature for 5 hours, followed by the mobility shift assay. The test was repeated twice. The enzymatic reaction was assessed on the basis of a product ratio (P/(P+S)) calculated from the height of a substrate peptide peak (S) and the height of a phosphorylated peptide peak (P). An inhibition rate was calculated from a signal obtained when each compound was added, with the average signal of a control containing all reaction components being defined as 0% inhibition and the average signal of a background (no enzyme added) being defined as 100% inhibition.
The compounds produced in Production Examples described above were each assessed for its inhibitory activity against CDK7, PIM2, and PI3K by mobility shift assay. In addition, a combination showing the highest inhibitory activity against each kinase is indicated by italics.

C[C@@H]1CC[C@H]2C(C)(C)CCC[C@]2(C)c2c1oc1c(C=O)c(O)c(O)cc21 [LG-1, liphagal]
% Inhibition [1]: 2.7%
inhibition at 10 µM [2]: 7.3%
inhibition at 10 µM [3]: 5%
inhibition at 10 µM [4]: 4.8%
inhibition at 10 µM [5]: 12.2%
inhibition at 10 µM [6]: 6.9%
inhibition at 10 µM [7]: -2.3%
inhibition at 10 µM [8]: 0.1%
inhibition at 10 µM [9]: -97.8%
inhibition at 10 µM [10]: 23.1%
inhibition at 10 µM [11]: -8.4%
inhibition at 10 µM [12]: 19.9%
inhibition at 10 µM [13]: 3.8%
inhibition at 10 µM [14]: 28.2%
inhibition at 10 µM [15]: 0.4%
inhibition at 10 µM [16]: 0.1%
inhibition at 10 µM [17]: 18.9%
inhibition at 10 µM [18]: 1.5%
inhibition at 10 µM [19]: 7.4%
inhibition at 10 µM [20]: -6.5%
inhibition at 10 µM [21]: 26.1%
inhibition at 10 µM [22]: 26.4%
inhibition at 10 µM [23]: 31.3%
inhibition at 10 µM [24]: 8.3%
inhibition at 10 µM [25]: 2.8%
inhibition at 10 µM [26]: 42.5%
inhibition at 10 µM [27]: 28.9%
inhibition at 10 µM [28]: 33.7%
inhibition at 10 µM [29]: 1.7%
inhibition at 10 µM [30]: 80.3%
inhibition at 10 µM [31]: 33.7%
inhibition at 10 µM [32]: 2.9%
inhibition at 10 µM [33]: 17.4%
IC50 [34]: 4.12 µM
